# Columns and labels:
# β-apiosidase = experiment: Enzymatic hydrolysis of Api-Glc-Ger by β-apiosidase present in Klerzyme 200 (TLC); format: biochemical
# Experimental: The β-apiosidase present in a commercial enzyme preparation (Klerzyme 200, Gist-brocades, France) was used without further purification.
# Thin-layer adsorption chromatography was carried out on pieces of aluminium foil covered with a thin layer (0.2 mm) of silica gel (5553 Silica gel 60 without a fluorescence indicator, Merck). An ethyl acetate/isopropanol/water (65:30:10 v/v/v) mixture was used as a migration solvent.
# The sugars and the glycosides are visualized by means of the following mixture, prepared immediately before use: 0.2% naphthoresorcinol in ethanol/concentrated sulphuric acid (19:1 v/v). The application of this visualizing agent is followed by drying the plates in the oven (105° C.) for 15 minutes. Apart from their migration distance, the various compounds are also distinguished by their colour. The glycosides are purple-red, the arabinosides are bluish, the apiosides are green, rhamnose greenish pink, arabinose blue, apiose green and glucose pink.
# In all the tests relating to the enzymatic hydrolysis of the synthetic substrates, the same glycosidase activity (0.15 nkat) is used for each of the enzymes (α-arabinosidase, apiosidase, α-rhamnosidase, β-glucosidase).
# α-arabinosidase = experiment: Enzymatic hydrolysis of the muscat glycosidic extract by α-arabinosidase (GC); format: biochemical
# Experimental: (§1) 40 μl of glycosidic extract and 60 μl of a solution of Glc-pNP (internal standard) at a concentration of 50 mg/1 in ethyl acetate are introduced into a suitable flask. The mixture is taken to dryness at 40° C. with a stream of nitrogen. 40 μl of the silylating reagent (Tri-sil, Pierce, Rockford, Ill., U.S.A.) are then introduced; the flask is sealed and maintained at 40° C. for 20 minutes. After rapid cooling, the silylated sample is then ready for analysis by GC.
# (§2) The apparatus used consists of a Series 30C gas chromatograph, an "on-column" injector (injected volume 0.5 μl) and a flame ionization detector (Girdel, France). A thin film (0.20 μm) of an OV-1 (Girdel) apolar silicone phase is grafted onto the inner wall of the capillary column ([…].). The oven temperature is programmed from 125 to 305° C. at the rate of 5° C./minute, then maintained at 305° C. for 15 minutes. Finally, the detector temperature is set at 300° C. and hydrogen is used as the carrier gas at a pressure of 120 kPa.
# (§3) The experimental protocols for the enzymatic hydrolysis on the glycosidic extract are collated in Table 3. […]
# α-rhamnosidase = experiment: Enzymatic hydrolysis of the muscat glycosidic extract by α-rhamnosidase (GC); format: biochemical; settings: 0.15 nkat, 40° C., 16 h
# Experimental: as §1, §2, §3
# β-glucosidase [1] = experiment: Second stage: consecutive action of β-glucosidase on the pre-incubated glycosidic extract (GC); format: biochemical, sweet almond; settings: 0.15 nkat, 40°, 16 h
# Experimental: as §1, §2, §3
# [2] = molecular target: T1, β-glucosidase of Klerzyme 200 (Aspergillus niger, UniProt A2RAL4); experiment: Hydrolysis of Hemicellulase-pretreated glycosidic extract by Klerzyme 200 (GC); format: biochemical; settings: glycosidic extract pretreated with Hemicellulase
# T1 sequence (A2RAL4 20-860): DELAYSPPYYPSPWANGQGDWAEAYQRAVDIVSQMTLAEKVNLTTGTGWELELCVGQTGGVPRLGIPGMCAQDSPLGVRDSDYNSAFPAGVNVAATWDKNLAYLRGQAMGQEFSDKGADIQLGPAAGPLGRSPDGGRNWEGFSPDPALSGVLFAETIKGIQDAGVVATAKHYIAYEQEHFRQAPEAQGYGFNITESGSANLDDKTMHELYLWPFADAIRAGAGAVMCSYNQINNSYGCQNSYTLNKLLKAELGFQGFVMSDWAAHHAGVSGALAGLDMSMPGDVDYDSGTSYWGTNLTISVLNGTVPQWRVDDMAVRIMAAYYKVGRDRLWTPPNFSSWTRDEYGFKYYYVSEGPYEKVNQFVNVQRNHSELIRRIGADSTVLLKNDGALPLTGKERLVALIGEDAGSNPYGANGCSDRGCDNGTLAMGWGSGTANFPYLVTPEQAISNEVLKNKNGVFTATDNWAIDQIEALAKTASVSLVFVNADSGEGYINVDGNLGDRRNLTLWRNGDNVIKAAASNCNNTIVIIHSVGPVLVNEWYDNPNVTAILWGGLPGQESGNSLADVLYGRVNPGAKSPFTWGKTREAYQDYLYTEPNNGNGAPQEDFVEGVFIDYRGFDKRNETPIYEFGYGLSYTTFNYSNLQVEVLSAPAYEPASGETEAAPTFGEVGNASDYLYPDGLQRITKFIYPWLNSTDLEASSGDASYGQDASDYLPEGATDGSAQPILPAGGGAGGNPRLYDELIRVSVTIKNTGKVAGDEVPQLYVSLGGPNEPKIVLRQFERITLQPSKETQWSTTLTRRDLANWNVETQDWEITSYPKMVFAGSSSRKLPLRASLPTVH
# Excerpt: In another aspect, the action of the β-apiosidase on a glycosidic extract (FIG. 11A) was studied after the action of the Hemicellulase preparation (containing α-rhamnosidase, α-arabinosidase and β-glucosidase activities) on this extract. The Hemicellulase preparation eliminated the rhamnosyl- and arabinosylglucosides (FIG. 11B). Afterwards, the apiosylglucosides remaining were subjected to the hydrolytic action of the β-apiosidase and β-glucosidase of Klerzyme 200 (FIG. 11C). […] This is attributable to the weak affinity of the β-glucosidase of Klerzyme 200, vis-a-vis the linalyl glucosides.
# [3] = Vinification of Muscat of Frontignan must with Klerzyme 200, free and bound aroma components by GC
# Experimental: After storing for 1.5 months at 20°-22° C., the free and bound aroma component fractions of each sample were extracted on an Amberlite XAD-2 column in 50 ml aliquots, and analyzed via GC.
# In another aspect, the action of an enzyme preparation (Klerzyme 200) containing β-apiosidase activity, in addition to α-rhamnosidase, α-arabinosidase and β-glucosidase activity, was studied during the fermentation of dry wines from the Muscat of Frontignan must. Klerzyme 200 (containing (per liter must) 2,770 nkat β-glucosidase, 704 nkat β-apiosidase, 276 nkat α-arabinosidase and 35 nkat α-rhamnosidase) and 10 g/hl of a wine yeast (Saccharomyces cerevisiae, type K1) were added to the must.
# β-glucosidase [4] = settings: cited from earlier work
Compound,hydrolysis by β-apiosidase present in Klerzyme 200 (TLC) (β-apiosidase),"Terpene monoglucosides liberated by α-arabinosidase from a glycosidic extract (α-arabinosidase; 0.15 nkat, 40° C., 16 h)",% of monoglucosides (liberated by the two enzymes together) (α-arabinosidase; sum of α-arabinosidase and α-rhamnosidase),Terpene monoglucosides liberated by α-rhamnosidase from a glycosidic extract (α-rhamnosidase),"hydrolysis by consecutive action of β-glucosidase (second stage, GC) (β-glucosidase [1]; listed as linalyl glucoside)","hydrolysis by consecutive action of β-glucosidase (second stage, GC) (β-glucosidase [1]; listed as linanyl monoglucoside)",hydrolysis by the β-glucosidase of Klerzyme 200 [2],hydrolysis by Klerzyme 200 during vinification of dry wine [3],affinity of the sweet almond β-glucosidase for the substrate (β-glucosidase [4])
"CC(C)=CCC/C(C)=C/CO[C@@H]1O[C@H](CO[C@@H]2OC[C@](O)(CO)[C@H]2O)[C@@H](O)[C@H](O)[C@H]1O [Api-Glc-Ger, geranyl β-D-apiofuranosyl-(1→6)-β-D-glucopyranoside]",disappearance of the substrate and the appearance of apiose and glucose,,,,,,,,
"C=CC(C)(CCC=C(C)C)O[C@@H]1O[C@H](CO)[C@@H](O)[C@H](O)[C@H]1O (stereo partly drawn) [Glc-Lin, linalyl β-D-glucopyranoside]",,10%,19%,9%,incomplete hydrolysis,reduction,not hydrolyzed,not hydrolyzed,low affinity
